According to article PMC3447791, “High Mannose-Binding Antiviral Lectin PFL from Pseudomonas fluorescens Pf0-1 Promotes Cell Death of Gastric Cancer Cell MKN28 via Interaction with α2-Integrin” (PLoS ONE, 2012):

Experiments:
PFL [1] = molecular target: T1, PFL (Pseudomonas fluorescens, UniProt Q3KJ04); assay: CFG printed glycan microarray v5.[…], fluorescence; assay type: binding; settings: 10 μg/ml Alexa488-PFL; glycan immobilised on array
T1 construct: gene Pfl01_0508; full length, 132 residues, two homologous domains; pET101/D-TOPO with native stop codon, E. coli BL21 Star (DE3); Alexa Fluor 488 labelled for the array
T1 sequence (Q3KJ04 2-133): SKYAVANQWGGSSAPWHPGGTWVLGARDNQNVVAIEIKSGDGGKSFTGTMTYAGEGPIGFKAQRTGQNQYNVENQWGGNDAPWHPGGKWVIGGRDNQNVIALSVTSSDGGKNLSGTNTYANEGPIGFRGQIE

PFL [2] = molecular target: T1, PFL; assay: CFG printed glycan microarray v5.[…], fluorescence; assay type: binding; settings: 10 μg/ml Alexa488-PFL; glycan immobilised on array; remark: listed apart in the source

| Substance | RFU (PFL [1]) | binding potency relative to M6 glycan (216) (PFL [2]) |
| --- | --- | --- |
| M6 glycan [compound 216] | 43471 RFU | – |
| M7 glycan [compound 211] | – | ~ 53% |
| M8 glycan [compound 212] | 40759 RFU | – |
| fucosylated counterpart of pentasaccharide core of N-glycan (50) [compound 485] | 746 RFU | – |
